Measurements reported in patent publication US11629141B2, “Proteasome inhibitors and uses thereof” (CORNELL UNIVERSITY, priority 2015, dated 2023).
Entries after “also recorded” stand apart in the source; their conditions may differ.

Legend:
[1] = target: T1, human immunoproteasome β5i (Homo sapiens, UniProt P28062); experiment: IC50 against chymotryptic β5i activity of human immunoproteasome (96-well plate, Ac-ANW-AMC); type: biochemical; conditions: β5i; substrate Ac-ANW-AMC; read-out: IC50 Hu i-20S (Ac-ANW-AMC)
T1 construct: purchased Boston Biochem Inc
Protocol: A 96-well-plate assays were used to determine the IC50s against the chymotryptic β5 activities of the proteasomes. Both human constitutive proteasome and immunoproteasome were purchased from Boston Biochem Inc. 1 μL of 100× compound in DMSO at designated concentrations were spotted at the bottom of the wells. DMSO was used as a control. […] The hydrolysis of the substrate over time in each well was monitored at excitation 360 nm, emission 460 nm for 90 minutes. IC50s were estimated by fitting the velocities of hydrolysis against compound concentrations using PRISM. […] SDS (0.02%) was used as activator, and 0.01% BSA was used in the reaction buffer.

[2] = target: T2, human constitutive proteasome β5c (Homo sapiens, UniProt P28074); experiment: IC50 against chymotryptic β5c activity of human constitutive proteasome (96-well plate, Suc-LLVY-AMC); type: biochemical; conditions: β5c; substrate Suc-LLVY-AMC; read-out: IC50 Hu c-20S (Suc-LLVY-AMC)
T2 construct: purchased Boston Biochem Inc
Protocol: A 96-well-plate assays were used to determine the IC50s against the chymotryptic β5 activities of the proteasomes. Both human constitutive proteasome and immunoproteasome were purchased from Boston Biochem Inc. 1 μL of 100× compound in DMSO at designated concentrations were spotted at the bottom of the wells. DMSO was used as a control. Final concentrations of the inhibitors were from 100 μM to 0.098 μM. The hydrolysis of the substrate over time in each well was monitored at excitation 360 nm, emission 460 nm for 90 minutes. IC50s were estimated by fitting the velocities of hydrolysis against compound concentrations using PRISM. […] Suc-LLVY-AMC was used for βc at final concentration of 25 μM, and Ac-ANW-AMC for b5i at final concentration of 15 μM. SDS (0.02%) was used as activator, and 0.01% BSA was used in the reaction buffer.
The foregoing features of these AsnEDA encouraged a further round of SAR studies (Table 5) based on varying the carboxylic acid at the ethylenediamine, the N-cap at the Asn, and the side chain of the Asn, based on PKS21004. All compounds listed in the Table 5 were synthesized as described in Examples 6-77. All final compounds were confirmed by NMR and HRMS. IC50s of all compounds against β5i and β5c (Table 5), β1i, β2i, β1c and β2c were determined following a reported method (Lin et al., “N,C-Capped Dipeptides With Selectivity for Mycobacterial Proteasome Over Human Proteasomes: Role of S3 and S1Binding Pockets,” J Am Chem Soc. 135:9968-9971 (2013), which is hereby incorporated by reference in its entirety). […] The [1,1′-biphenyl]-3-carboxamide of PKS21004 was then modified with the following substituents: 4′-fluoro (PKS21026), 4′-cyano (PKS21028), 4-fluoro (PKS21196), 4,3′-difluoro (PKS21195) and 4,2′-difluoro (PKS21187).

Plasmodium falciparum = experiment: Growth of Plasmodium falciparum in red blood cells (SYBR Green, 72 hours); type: cell-based; conditions: Erythrocyte, P.f. 3D7, growth in red blood cells, read-out: EC50 (nM) (P.f.)
Protocol: Continuous in vitro cultures of Plasmodium falciparum: were maintained in human red blood cells (RBC) diluted to a hematocrit of 5% in RPMI 1640 medium with HEPES and Hypoxanthine and completed with 0.5% Albumax II (Invitrogen), 0.25% sodium bicarbonate, and 0.1 mg/ml gentamicin. Parasites were incubated at 37° C. in a gas mixture of 5% oxygen, 5% carbon dioxide, and 90% nitrogen.
Parasite sensitivity to novel compounds were determined using a SYBR Green (Invitrogen S1046) drug assay protocol. P. falciparum of various clinic stains were cultured with compounds at concentrations in a series of dilution in a clear, sterile 96-well plate for 72 hours. Subsequently, 150 μl of the cultures were transferred to a black 96-well plate and placed in the freezer for red blood cell lysis. The plates were thawed and suspended in a Sybr Green Lysis buffer. GraphPad Prism was used to analyze the raw data collected […]. Drug concentrations were converted to logarithms, normalized, and then curve fitted by non-linear regression to obtain EC50 values.
Plasmodium falciparum: parasites were cultured in human red cells. Drug assays were run in 96 well plates at a total volume of 200 μl. Assays were set up at a starting parasitemia (percent of infected red cells) of 0.5%. Test compounds were plated at concentrations of 2778 nM to 0.4 nM. The test plates were grown under standard low oxygen conditions at 37° C. for 72 hours. At that time the plates were prepared for growth determination, first the plates were frozen and thawed to lyse the red blood cells, 150 μl of the lysed thawed culture was transferred to a black 96 well plate, and mixed in a lysis buffer with SYBR green DNA dye. The fluorescence of each well was recorded in a plate reader with excitation wavelength 490 nm and emission wavelength 530 nm and normalized relative to DMSO control. The EC50s were determined using Prism software.

Pf Gametocytes = experiment: Gametocyte killing assay (DilC1(5), flow cytometry); type: cell-based; conditions: Plasmodium falciparum; NF54 peg4-tdTomato, 72 hour incubation; read-out: EC50 against Pf Gametocytes
Protocol: Asexual replication of NF54 peg4-tdTomato parasites was eliminated by treating with 50 mM GlcNAc and 20 U/mL Heparin for 3 days. NF54 peg4-tdTomato parasites then were maintained using standard culture techniques. Gametocytes were induced synchronously according to Fivelman et al., “Improved Synchronous Production of Plasmodium Falciparum Gametocytes in Vitro,” Mol Biochemo Parasitol. 154(1):119-123 (2007), which is hereby incorporated by reference in its entirety. Asexual replication was eliminated by treating with 50 mM GlcNAc for 3 days. Gametocyte killing assays were setup on days 5 and 10 in triplicate 96-well format at 1% hematocrit and 2% gametocytemia. Compounds were setup in triplicate and serially diluted 3-fold. In addition, 6 solvent controls (DMSO) were distributed evenly across the plate. Following a 72 hour incubation, Stage III-IV (Day 5-7) and Stage IV-V (Day 10-12), (start the incubation in the afternoon on Day 5 and Day 10, take out plate for assay on Day8 and Day13 afternoon) cultures were stained with 16 nM Hoechst 33342 and 50 nM DilC1(5) for 30 min at 37 C. Using a Cytek DxP12 flow cytometer, gametocytemia was determined by gating for DNA+, hemozoin-high cells and gametocyte viability was inferred based on mitochondrial membrane potential-dependent accumulation of DilC1(5) for 2000-3000 gametocytes (Tanaka et al., “Potent Plasmodium Falciparum Gametocytocidal Activity of Diaminonaphthoquinones, Lead Antimalarial Chemotypes Identified in an Antimalarial Compound Screen,” Antimicrob. Agents Chemother. 2015, 59:1389 (2015), which is hereby incorporated by reference in its entirety). Mean DilC1(5) signal was normalized to solvent control and the overall minimum and used to calculate the EC50 (FIG. 3 and Table 4).

Pf20S β5 = experiment: Labeling of Pf20S active subunits by activity probe MV151 in Pf lysates; type: biochemical, P. falciparum; conditions: 1 hour with inhibitor, then MV151 (2 μM) 1 hour
Protocol: Pf lysates were incubated with inhibitors at indicated concentrations for 1 hour prior to incubation with MV151 (2 μM) for an additional hour. SDS pages were scanned on a Typhoon fluorescent scanner. […] BTZ was used as a positive control.

Row | Structure (SMILES) | IC50 [1] [nM] | IC50 [2] [nM] | EC50 (Plasmodium falciparum) [nM] | EC50 (Pf Gametocytes) [nM] | labeling of Pf20S β5 by MV151 (Pf20S β5)
1 | Cc1ccc(S(=O)(=O)N[C@@H](CC(=O)NC(C)(C)C)C(=O)NCCNC(=O)c2cc(-c3ccccc3)ccn2)cc1 [PKS21229] | 19 | 510 | 1 | – | –
2 | Cc1cc(C(=O)N[C@@H](CC(=O)NC(C)(C)C)C(=O)NCCNC(=O)c2cccc(-c3cc[nH]n3)c2)no1 [PKS21287] | 1150 | 21100 | 34 | 206 | block labeling; also recorded: dose-dependently inhibited the labeling
3 | Cc1ccc(S(=O)(=O)N[C@@H](CC(=O)NC(C)(C)C)C(=O)NCCNC(=O)c2ccccc2F)cc1 [PKS21291] | 55 | 520 | 11 | – | –
4 | Cc1ccc(S(=O)(=O)N[C@@H](CC(=O)NC(C)(C)C)C(=O)NCCNC(=O)c2ccccc2O)cc1 [PKS21292] | 15 | 187 | 2.9 | – | –
